Reference: ChEMBL document CHEMBL3351767, “The discovery of Polo-like kinase 4 inhibitors: design and optimization of spiro[cyclopropane-1,3'[3H]indol]-2'(1'H).ones as orally bioavailable antitumor agents” (J Med Chem, 2015)

How the values were obtained:
MCF7 = test: Cytotoxicity against human MCF7 cells after 5 days by SRB assay; format: functional; settings: MCF7, 120 h
MDA-MB-231 = test: Cytotoxicity against human MDA-MB-231 cells after 5 days by SRB assay; format: functional; settings: MDA-MB-231, 120 h
MDA-MB-468 = test: Cytotoxicity against human MDA-MB-468 cells after 5 days by SRB assay; format: functional; settings: MDA-MB-468, 120 h
[1] = Cytotoxicity against human SKBR3 cells after 5 days by SRB assay; format: functional; settings: SK-BR-3, 120 h
Cytochrome P450 3A4 = Cytochrome P450 3A4 (Homo sapiens, UniProt P08684); test: Inhibition of CYP3A4 (unknown origin) using BFC substrate after 30 mins by fluorescence assay; format: ADME
Cytochrome P450 3A4, sequence (P08684 whole entry): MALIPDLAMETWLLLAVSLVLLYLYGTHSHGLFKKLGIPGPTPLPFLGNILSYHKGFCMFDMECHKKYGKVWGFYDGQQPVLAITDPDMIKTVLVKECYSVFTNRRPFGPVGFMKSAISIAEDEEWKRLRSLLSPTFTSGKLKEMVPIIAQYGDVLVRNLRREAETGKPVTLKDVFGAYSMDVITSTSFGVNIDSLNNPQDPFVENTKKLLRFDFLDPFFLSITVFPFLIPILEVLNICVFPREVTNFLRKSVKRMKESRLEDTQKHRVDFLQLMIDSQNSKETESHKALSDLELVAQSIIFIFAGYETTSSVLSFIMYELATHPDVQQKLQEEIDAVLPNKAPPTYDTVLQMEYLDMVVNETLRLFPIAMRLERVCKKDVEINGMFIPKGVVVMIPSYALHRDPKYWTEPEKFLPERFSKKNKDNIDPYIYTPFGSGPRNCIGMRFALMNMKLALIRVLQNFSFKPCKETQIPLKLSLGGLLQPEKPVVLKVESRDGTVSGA

[2] = target: Vascular endothelial growth factor receptor 2 (Homo sapiens, UniProt P35968); test: Inhibition of KDR (unknown origin) by FRET-based homogeneous assay
Vascular endothelial growth factor receptor 2, sequence (P35968 whole entry): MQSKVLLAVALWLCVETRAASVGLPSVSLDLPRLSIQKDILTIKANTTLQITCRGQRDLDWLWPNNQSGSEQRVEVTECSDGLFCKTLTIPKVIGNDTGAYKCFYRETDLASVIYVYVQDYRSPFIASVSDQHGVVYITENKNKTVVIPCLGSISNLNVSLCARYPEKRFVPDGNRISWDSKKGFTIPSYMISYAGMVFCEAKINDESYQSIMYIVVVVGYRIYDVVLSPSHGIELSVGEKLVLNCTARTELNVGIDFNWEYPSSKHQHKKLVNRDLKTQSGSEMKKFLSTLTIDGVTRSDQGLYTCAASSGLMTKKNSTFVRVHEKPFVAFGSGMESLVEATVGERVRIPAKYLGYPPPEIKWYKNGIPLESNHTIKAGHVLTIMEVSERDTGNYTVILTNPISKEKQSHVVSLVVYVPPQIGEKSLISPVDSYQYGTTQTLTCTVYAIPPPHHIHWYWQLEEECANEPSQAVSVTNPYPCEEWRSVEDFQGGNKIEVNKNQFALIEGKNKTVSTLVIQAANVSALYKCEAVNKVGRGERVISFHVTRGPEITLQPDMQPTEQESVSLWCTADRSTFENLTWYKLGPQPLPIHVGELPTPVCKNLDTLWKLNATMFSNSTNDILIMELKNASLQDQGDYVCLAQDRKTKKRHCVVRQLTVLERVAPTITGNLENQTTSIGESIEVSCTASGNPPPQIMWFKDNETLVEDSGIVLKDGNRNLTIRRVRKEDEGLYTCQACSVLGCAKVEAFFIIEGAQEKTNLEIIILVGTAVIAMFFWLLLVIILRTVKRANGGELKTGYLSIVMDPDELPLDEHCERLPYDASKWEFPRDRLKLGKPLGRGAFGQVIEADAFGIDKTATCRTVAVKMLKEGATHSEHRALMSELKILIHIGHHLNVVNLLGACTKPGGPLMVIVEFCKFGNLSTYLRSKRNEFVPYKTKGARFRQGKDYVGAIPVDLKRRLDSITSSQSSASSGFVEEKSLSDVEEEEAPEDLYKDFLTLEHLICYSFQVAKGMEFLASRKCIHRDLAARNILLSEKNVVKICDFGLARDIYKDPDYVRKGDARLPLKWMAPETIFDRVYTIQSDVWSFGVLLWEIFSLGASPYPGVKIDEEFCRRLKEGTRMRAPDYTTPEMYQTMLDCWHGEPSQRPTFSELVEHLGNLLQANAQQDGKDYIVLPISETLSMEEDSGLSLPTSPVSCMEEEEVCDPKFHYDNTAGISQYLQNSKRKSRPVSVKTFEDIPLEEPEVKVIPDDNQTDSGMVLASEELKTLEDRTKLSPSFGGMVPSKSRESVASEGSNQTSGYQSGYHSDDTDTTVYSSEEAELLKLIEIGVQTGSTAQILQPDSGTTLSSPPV

Cytochrome P450 2C19 = Cytochrome P450 2C19 (Homo sapiens, UniProt P33261); test: Inhibition of CYP2C19 (unknown origin) using MFC substrate after 30 mins by fluorescence assay; format: ADME
Cytochrome P450 2C19, sequence (P33261 whole entry): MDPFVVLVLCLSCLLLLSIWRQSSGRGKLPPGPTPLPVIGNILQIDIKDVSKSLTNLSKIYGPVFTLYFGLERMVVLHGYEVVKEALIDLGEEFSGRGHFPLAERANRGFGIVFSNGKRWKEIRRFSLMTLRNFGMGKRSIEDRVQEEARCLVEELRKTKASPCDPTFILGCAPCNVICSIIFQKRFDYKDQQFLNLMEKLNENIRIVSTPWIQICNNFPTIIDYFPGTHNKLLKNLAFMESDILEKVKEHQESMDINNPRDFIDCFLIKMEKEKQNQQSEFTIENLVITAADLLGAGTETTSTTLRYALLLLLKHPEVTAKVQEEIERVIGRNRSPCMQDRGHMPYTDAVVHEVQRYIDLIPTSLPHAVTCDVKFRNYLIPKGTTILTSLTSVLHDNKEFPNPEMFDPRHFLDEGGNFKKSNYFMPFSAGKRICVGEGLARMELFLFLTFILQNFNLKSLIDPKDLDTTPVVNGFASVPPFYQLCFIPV

Cytochrome P450 1A2 = target: T1, Cytochrome P450 1A2 (Homo sapiens, UniProt P05177); test: Inhibition of CYP1A2 (unknown origin) using CEC substrate after 15 mins by fluorescence assay; format: ADME
T1 sequence (P05177 whole entry): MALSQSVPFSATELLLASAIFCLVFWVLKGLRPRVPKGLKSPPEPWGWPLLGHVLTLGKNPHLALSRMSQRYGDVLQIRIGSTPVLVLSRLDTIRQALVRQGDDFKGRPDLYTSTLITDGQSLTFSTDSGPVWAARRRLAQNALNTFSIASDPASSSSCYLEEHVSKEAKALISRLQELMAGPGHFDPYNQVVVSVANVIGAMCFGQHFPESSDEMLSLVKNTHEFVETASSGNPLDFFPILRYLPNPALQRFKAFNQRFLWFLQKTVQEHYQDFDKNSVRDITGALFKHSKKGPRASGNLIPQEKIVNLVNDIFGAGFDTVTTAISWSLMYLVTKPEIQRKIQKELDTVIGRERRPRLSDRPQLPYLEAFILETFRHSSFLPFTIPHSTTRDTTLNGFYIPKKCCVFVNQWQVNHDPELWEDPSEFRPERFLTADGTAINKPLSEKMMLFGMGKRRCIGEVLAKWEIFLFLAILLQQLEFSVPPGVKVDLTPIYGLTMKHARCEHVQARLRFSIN

[3] = Cmax in SCID mouse at 25 mg/kg, po by LCMS/MS method; format: ADME, organism-based; parameters: dose 25 mg/kg, route oral; settings: in vivo
Cytochrome P450 2D6 = Cytochrome P450 2D6 (Homo sapiens, UniProt P10635); test: Inhibition of CYP2D6 (unknown origin) using AMMC substrate after 45 mins by fluorescence assay; format: ADME
Cytochrome P450 2D6, sequence (P10635 whole entry): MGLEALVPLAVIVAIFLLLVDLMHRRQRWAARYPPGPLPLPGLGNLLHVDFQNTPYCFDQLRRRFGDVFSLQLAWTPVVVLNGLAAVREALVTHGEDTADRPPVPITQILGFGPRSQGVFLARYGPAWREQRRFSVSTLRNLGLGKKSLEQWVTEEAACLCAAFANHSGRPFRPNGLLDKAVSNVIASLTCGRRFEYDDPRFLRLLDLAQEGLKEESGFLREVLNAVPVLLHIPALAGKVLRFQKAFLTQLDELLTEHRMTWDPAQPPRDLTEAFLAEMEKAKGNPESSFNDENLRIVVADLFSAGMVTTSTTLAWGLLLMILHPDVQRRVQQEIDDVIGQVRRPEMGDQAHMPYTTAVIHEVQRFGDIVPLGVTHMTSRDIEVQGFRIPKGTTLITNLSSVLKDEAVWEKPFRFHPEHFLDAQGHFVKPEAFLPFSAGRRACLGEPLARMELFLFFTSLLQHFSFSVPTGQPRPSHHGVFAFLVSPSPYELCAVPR

Cytochrome P450 2C9 = Cytochrome P450 2C9 (Homo sapiens, UniProt P11712); test: Inhibition of CYP2C9 (unknown origin) using MFC substrate after 45 mins by fluorescence assay; format: ADME
Cytochrome P450 2C9, sequence (P11712 whole entry): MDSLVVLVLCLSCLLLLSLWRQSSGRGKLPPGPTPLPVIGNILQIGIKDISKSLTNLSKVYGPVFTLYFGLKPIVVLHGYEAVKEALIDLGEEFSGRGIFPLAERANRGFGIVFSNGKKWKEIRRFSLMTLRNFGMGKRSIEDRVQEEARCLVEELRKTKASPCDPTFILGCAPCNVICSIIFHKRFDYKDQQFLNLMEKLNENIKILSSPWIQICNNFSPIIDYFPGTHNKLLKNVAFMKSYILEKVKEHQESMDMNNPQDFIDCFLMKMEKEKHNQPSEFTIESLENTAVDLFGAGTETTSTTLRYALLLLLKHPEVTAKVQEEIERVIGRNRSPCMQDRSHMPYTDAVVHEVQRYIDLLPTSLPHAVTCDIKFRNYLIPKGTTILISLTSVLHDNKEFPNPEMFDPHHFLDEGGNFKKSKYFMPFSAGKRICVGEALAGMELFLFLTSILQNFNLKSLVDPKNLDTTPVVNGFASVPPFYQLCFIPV

[4] = AUC in SCID mouse at 25 mg/kg, po by LCMS/MS method; format: ADME, organism-based; parameters: dose 25 mg/kg, route oral; settings: plasma
[5] = target: T2, Receptor-type tyrosine-protein kinase FLT3 (Homo sapiens, UniProt P36888); test: Inhibition of FLT3 (unknown origin) by FRET-based homogeneous assay
T2 sequence (P36888 whole entry): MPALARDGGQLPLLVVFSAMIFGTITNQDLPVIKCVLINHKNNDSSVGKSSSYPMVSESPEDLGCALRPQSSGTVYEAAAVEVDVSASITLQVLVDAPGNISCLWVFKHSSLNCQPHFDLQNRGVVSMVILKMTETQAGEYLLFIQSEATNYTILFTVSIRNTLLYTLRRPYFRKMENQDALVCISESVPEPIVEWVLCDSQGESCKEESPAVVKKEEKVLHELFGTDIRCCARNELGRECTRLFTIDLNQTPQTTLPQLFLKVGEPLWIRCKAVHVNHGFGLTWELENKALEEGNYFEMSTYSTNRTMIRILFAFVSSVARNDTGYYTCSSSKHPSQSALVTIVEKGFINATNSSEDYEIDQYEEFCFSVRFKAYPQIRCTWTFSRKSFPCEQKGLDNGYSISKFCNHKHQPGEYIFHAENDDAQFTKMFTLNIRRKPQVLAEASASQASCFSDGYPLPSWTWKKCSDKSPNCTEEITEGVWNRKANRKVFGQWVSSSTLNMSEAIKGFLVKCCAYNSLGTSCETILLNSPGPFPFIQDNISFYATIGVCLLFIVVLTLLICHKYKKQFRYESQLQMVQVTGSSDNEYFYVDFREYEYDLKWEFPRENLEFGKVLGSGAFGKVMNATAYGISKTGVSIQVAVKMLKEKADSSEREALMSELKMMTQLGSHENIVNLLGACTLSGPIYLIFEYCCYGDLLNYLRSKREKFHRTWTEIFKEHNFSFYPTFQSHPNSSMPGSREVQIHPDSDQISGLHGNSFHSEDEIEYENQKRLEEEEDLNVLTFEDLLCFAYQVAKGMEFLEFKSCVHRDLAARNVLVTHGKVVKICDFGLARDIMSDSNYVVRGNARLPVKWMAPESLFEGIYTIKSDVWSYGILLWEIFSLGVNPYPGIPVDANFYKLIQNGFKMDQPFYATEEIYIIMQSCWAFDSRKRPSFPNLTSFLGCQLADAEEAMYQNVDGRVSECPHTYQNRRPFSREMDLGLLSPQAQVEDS

SMILES | GI50 (MCF7) [nM] | GI50 (MDA-MB-231) [µM] | GI50 (MDA-MB-468) [nM] | GI50 [1] [µM] | IC50 (Cytochrome P450 3A4) [µM] | IC50 [2] [µM] | IC50 (Cytochrome P450 2C19) [µM] | IC50 (Cytochrome P450 1A2) [µM] | Cmax [3] [ng/mL] | IC50 (Cytochrome P450 2D6) [µM] | IC50 (Cytochrome P450 2C9) [µM] | AUC [4] [ng·h/mL] | IC50 [5] [µM]
Cc1ccc2c(c1)[C@]1(C[C@H]1c1ccc3c(/C=C/c4ccc(CN(C)C)cc4)n[nH]c3c1)C(=O)N2 (relative stereo) | 0.01 | 2.8 | 0.05 | 3.4 | – | – | – | – | – | – | – | – | –
CN(C)Cc1ccc(/C=C/c2n[nH]c3cc([C@@H]4C[C@@]45C(=O)Nc4ccc(F)cc45)ccc23)cc1 (relative stereo) | 100 | 0.55 | 10 | 2.2 | – | – | – | – | – | – | – | – | –
CCc1ccc2c(c1)[C@]1(C[C@H]1c1ccc3c(/C=C/c4ccc(CN(C)C)cc4)n[nH]c3c1)C(=O)N2 (relative stereo) | 240 | 2 | 10 | 2 | – | – | – | – | – | – | – | – | –
O=C1Nc2ccccc2[C@]12C[C@H]2c1ccc2c(/C=C/c3ccc(CN4CCOCC4)cc3)n[nH]c2c1 (relative stereo) | 10 | < 0.01 | 10 | 11.3 | > 1 | 1.4 | 1.8 | > 10 | 1800 | > 10 | 1.4 | 4300 | –
COc1ccc2c(c1)[C@]1(C[C@H]1c1ccc3c(/C=C/c4ccc(CN5CCOCC5)cc4)n[nH]c3c1)C(=O)N2 (relative stereo) | < 10 | < 0.01 | < 10 | 13.8 | > 1 | 24 | 2.1 | > 10 | 1700 | > 1 | 1.4 | 4900 | –
Cc1ccc2c(c1)[C@]1(C[C@H]1c1ccc3c(/C=C/c4ccc(CN5CCOCC5)cc4)n[nH]c3c1)C(=O)N2 (relative stereo) | 80 | 0.56 | 30 | 8.8 | – | – | – | – | – | – | – | – | –
COc1ccc2c(c1)[C@]1(C[C@H]1c1ccc3c(/C=C/c4cc(F)c(CN5CCOCC5)c(F)c4)n[nH]c3c1)C(=O)N2 (relative stereo) | 50 | 1.7 | 60 | 3.7 | – | 7.9 | – | – | – | – | – | – | –
CN1CCN(Cc2ccc(/C=C/c3n[nH]c4cc([C@@H]5C[C@@]56C(=O)Nc5ccccc56)ccc34)cc2)CC1 (relative stereo) | 10 | 2.5 | 10 | 6 | > 10 | 0.12 | > 1 | > 1 | 190 | > 10 | > 1 | 580 | 0.12
O=C1Nc2ccccc2[C@]12C[C@H]2c1ccc2c(/C=C/c3ccc(CN4CCCC4)cc3)n[nH]c2c1 (relative stereo) | 50 | 1.9 | < 10 | 4.1 | – | – | – | – | – | – | – | – | –
O=C1Nc2ccccc2[C@]12C[C@H]2c1ccc2c(/C=C/c3ccc(CN4CCCCC4)cc3)n[nH]c2c1 (relative stereo) | 600 | 0.9 | 500 | 0.8 | – | 0.012 | – | – | – | – | – | – | –
CNC(=O)c1ccccc1Sc1ccc2c(/C=C/c3ccccn3)n[nH]c2c1 [AXITINIB] | 2300 | – | 2800 | 4.6 | – | – | – | – | – | – | – | – | –
